From paper PMC8550792, “Evolution of kinase polypharmacology across HSP90 drug discovery” (Cell Chemical Biology, 2021)

What was measured:
Assay in all cases: biochemical
Type in all cases: biochemical
382 unique human kinases [1] = target: T1, 382 unique human kinases (Homo sapiens, UniProt Q5VT25); conditions: kinase MRCKa/CDC42BPA, compound 10 uM; for remaining activity at 10 µM: read-out: % Enzyme Activity (relative to DMSO controls)
T1 construct: purchased Reaction Biology (HotSpot contract assay)

382 unique human kinases [2] = target: T2, 382 unique human kinases (Homo sapiens, UniProt Q12852); conditions: kinase DLK/MAP3K12, compound 10 uM; for remaining activity at 10 µM: read-out: % Enzyme Activity (relative to DMSO controls)
T2 sequence (Q12852 1-859): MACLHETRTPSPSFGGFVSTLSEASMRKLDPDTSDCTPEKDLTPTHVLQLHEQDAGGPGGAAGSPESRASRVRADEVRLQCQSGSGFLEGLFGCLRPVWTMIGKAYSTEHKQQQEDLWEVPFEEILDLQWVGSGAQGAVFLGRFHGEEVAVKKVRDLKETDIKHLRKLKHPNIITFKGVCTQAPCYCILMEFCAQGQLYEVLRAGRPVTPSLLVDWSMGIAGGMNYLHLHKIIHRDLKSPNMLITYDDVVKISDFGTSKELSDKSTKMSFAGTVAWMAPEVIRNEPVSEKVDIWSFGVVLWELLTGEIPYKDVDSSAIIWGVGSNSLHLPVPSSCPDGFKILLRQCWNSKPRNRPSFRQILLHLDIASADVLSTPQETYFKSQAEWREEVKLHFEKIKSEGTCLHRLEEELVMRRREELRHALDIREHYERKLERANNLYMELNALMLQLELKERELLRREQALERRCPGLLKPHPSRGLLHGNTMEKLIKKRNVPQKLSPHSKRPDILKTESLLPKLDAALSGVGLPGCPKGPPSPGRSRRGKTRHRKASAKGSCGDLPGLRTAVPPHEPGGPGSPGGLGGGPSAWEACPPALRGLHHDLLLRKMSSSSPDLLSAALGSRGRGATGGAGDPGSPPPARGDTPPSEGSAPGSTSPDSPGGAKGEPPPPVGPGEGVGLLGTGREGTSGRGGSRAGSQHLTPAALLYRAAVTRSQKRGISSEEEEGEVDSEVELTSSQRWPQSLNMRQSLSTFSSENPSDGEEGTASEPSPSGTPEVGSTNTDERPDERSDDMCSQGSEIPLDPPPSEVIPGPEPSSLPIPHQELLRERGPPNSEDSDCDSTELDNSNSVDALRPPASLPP

382 unique human kinases [3] = target: T3, 382 unique human kinases (Homo sapiens, UniProt Q16832, T654M); conditions: DDR2 (T654M), 10 uM; for remaining activity at 10 µM: read-out: % Enzyme Activity (relative to DMSO controls)
T3 construct: purchased Reaction Biology (HotSpot contract assay)
T3 sequence (Q16832 22-855 T654M): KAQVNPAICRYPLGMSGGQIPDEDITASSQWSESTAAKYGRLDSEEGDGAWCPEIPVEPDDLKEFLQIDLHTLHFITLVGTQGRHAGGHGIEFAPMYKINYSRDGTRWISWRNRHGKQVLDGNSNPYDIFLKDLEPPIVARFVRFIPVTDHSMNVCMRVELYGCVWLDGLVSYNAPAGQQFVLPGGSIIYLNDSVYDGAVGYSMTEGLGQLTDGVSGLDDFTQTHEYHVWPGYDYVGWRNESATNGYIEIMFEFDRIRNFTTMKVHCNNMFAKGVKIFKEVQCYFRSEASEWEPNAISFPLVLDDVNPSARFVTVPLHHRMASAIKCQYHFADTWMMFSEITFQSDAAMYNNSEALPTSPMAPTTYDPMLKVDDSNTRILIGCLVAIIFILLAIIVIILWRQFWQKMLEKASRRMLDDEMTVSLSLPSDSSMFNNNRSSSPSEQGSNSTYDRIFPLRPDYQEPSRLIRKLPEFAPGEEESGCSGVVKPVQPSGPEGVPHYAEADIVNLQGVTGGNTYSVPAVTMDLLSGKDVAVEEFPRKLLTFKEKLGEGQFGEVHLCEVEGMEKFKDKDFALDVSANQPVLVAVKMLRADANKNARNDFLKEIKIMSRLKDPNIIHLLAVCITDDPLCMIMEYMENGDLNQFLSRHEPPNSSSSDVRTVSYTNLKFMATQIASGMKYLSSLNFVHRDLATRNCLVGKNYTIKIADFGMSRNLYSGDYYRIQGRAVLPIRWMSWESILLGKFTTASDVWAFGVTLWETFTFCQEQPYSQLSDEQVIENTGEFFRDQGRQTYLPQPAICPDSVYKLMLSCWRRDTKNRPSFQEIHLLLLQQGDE

382 unique human kinases [4] = target: T4, 382 unique human kinases (Homo sapiens, UniProt Q13554); conditions: kinase CAMK2b, compound 10 uM; for remaining activity at 10 µM: read-out: % Enzyme Activity (relative to DMSO controls)
T4 construct: purchased Reaction Biology (HotSpot contract assay)

382 unique human kinases [5] = target: T5, 382 unique human kinases (Homo sapiens, UniProt Q8NE63); conditions: HIPK4, 10 uM; for remaining activity at 10 µM: read-out: % Enzyme Activity (relative to DMSO controls)
T5 construct: purchased Reaction Biology (HotSpot contract assay)
T5 sequence (Q8NE63 1-616): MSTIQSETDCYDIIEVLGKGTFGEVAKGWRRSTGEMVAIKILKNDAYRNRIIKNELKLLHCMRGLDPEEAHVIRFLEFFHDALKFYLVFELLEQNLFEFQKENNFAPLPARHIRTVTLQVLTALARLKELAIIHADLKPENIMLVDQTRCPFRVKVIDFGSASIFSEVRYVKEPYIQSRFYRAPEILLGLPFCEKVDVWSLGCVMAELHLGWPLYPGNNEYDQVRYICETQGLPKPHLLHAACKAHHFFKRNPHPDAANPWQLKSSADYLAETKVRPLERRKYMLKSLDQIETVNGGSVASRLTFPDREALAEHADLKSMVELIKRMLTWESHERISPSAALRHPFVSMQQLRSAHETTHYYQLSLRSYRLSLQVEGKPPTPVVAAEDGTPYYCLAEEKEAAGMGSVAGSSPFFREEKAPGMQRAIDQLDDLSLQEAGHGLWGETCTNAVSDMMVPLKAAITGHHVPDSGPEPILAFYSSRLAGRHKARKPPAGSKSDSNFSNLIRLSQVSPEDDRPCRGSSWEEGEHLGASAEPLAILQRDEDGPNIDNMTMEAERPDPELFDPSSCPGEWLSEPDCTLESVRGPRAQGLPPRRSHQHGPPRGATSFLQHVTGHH

382 unique human kinases [6] = target: T6, 382 unique human kinases (Homo sapiens, UniProt Q16539); conditions: kinase P38a/MAPK14, compound 10 uM; for remaining activity at 10 µM: read-out: % Enzyme Activity (relative to DMSO controls)
T6 construct: purchased Reaction Biology (HotSpot contract assay)

382 unique human kinases [7] = target: T7, 382 unique human kinases (Homo sapiens, UniProt P07949, S891A); conditions: RET (S891A), [ATP] 5 µM, compound 10 uM; for remaining activity at 10 µM: read-out: % Enzyme Activity (relative to DMSO controls)
T7 construct: purchased Reaction Biology (HotSpot contract assay)

382 unique human kinases [8] = target: T8, 382 unique human kinases (Homo sapiens, UniProt Q8N5S9); conditions: CAMKK1, 10 uM; for remaining activity at 10 µM: read-out: % Enzyme Activity (relative to DMSO controls)
T8 construct: purchased Reaction Biology (HotSpot contract assay)

382 unique human kinases [9] = target: T9, 382 unique human kinases (Homo sapiens, UniProt P53350); conditions: PLK1, [ATP] 30 µM
T9 construct: purchased Reaction Biology (HotSpot contract assay)

[10] = compound 10 uM, read-out: % Enzyme Activity (relative to DMSO controls)

T9 sequence (P53350 whole entry): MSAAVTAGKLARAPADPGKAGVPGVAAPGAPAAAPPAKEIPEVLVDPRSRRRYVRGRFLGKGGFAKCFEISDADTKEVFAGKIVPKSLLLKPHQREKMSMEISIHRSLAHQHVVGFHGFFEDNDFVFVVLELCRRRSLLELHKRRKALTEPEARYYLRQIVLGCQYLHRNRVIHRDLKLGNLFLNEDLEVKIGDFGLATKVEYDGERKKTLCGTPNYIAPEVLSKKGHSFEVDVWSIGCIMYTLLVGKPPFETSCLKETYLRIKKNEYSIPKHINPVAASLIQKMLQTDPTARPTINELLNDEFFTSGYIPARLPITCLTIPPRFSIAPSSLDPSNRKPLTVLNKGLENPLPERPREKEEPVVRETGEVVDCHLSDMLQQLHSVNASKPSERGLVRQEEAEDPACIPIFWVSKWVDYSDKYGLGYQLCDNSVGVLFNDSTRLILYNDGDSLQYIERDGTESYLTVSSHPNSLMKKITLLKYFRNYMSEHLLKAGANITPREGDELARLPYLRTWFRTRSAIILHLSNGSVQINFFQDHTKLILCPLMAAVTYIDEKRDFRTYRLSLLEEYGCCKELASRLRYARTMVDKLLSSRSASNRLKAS
T8 sequence (Q8N5S9 whole entry): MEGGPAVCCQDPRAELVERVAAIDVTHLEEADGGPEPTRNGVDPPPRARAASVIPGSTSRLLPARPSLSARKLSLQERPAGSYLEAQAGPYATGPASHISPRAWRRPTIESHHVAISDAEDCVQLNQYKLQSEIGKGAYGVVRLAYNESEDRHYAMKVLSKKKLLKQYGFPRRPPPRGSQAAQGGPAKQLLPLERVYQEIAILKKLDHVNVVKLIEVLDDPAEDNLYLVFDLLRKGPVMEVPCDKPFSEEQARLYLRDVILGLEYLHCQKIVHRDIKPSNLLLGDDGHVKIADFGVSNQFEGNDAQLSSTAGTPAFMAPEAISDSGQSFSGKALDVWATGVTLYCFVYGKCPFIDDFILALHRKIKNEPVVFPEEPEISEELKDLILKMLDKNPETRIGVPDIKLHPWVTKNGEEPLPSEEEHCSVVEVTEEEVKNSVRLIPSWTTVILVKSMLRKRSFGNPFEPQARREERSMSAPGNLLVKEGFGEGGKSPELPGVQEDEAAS
T4 sequence (Q13554 whole entry): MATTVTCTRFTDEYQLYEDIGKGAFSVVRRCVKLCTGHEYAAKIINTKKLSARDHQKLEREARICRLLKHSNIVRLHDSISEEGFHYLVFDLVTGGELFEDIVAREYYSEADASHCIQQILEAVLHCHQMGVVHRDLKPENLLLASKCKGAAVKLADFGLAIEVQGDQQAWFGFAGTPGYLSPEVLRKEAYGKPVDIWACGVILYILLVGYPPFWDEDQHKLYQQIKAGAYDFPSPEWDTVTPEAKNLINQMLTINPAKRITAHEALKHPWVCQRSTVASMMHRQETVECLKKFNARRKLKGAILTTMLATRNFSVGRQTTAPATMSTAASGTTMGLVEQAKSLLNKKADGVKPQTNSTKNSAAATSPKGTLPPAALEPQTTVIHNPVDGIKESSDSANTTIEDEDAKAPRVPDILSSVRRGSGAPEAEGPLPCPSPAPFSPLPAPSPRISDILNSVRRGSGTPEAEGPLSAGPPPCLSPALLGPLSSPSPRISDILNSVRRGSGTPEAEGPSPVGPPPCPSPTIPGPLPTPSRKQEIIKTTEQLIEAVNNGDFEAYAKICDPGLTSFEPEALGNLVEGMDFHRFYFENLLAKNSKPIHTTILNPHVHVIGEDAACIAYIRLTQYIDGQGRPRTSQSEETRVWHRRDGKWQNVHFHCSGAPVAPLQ
T6 sequence (Q16539 whole entry): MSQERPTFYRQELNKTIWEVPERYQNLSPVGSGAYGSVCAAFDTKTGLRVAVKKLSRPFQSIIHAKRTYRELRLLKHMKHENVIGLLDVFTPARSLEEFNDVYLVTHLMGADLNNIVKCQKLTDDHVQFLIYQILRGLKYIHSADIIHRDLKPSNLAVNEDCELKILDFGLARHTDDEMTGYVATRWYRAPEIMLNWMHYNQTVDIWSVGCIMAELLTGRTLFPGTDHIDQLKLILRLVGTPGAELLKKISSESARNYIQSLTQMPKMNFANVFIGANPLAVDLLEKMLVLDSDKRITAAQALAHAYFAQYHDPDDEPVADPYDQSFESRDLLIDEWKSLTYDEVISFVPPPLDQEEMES
T7 sequence (P07949 29-1114 S891A): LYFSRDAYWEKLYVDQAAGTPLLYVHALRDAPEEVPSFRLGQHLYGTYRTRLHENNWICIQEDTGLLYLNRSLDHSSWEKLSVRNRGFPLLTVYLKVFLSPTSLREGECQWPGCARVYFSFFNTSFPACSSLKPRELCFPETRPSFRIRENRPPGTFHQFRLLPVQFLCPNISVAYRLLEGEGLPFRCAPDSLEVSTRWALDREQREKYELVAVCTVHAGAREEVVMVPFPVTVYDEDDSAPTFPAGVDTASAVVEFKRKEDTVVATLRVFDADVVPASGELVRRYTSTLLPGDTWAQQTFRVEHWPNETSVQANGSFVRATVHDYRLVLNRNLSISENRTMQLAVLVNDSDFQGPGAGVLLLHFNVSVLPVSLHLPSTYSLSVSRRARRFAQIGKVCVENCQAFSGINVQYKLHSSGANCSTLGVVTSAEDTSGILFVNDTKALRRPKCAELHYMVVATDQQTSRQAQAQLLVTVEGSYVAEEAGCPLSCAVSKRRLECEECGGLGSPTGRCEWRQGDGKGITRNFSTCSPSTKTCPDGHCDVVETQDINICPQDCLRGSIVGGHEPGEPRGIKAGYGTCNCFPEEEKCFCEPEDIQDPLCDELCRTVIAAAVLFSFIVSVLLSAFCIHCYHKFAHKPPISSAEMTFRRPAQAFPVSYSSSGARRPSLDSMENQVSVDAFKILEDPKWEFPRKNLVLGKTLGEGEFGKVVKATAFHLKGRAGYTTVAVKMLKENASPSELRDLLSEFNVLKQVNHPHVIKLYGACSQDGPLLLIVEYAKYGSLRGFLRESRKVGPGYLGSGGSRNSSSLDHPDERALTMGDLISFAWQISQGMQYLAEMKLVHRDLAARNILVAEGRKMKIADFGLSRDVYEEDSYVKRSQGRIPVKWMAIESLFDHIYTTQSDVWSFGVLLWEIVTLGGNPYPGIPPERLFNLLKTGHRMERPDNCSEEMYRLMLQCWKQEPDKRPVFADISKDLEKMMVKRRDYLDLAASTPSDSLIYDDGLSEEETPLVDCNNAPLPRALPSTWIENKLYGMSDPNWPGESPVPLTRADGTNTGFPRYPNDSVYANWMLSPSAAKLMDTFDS
T1 sequence (Q5VT25 whole entry): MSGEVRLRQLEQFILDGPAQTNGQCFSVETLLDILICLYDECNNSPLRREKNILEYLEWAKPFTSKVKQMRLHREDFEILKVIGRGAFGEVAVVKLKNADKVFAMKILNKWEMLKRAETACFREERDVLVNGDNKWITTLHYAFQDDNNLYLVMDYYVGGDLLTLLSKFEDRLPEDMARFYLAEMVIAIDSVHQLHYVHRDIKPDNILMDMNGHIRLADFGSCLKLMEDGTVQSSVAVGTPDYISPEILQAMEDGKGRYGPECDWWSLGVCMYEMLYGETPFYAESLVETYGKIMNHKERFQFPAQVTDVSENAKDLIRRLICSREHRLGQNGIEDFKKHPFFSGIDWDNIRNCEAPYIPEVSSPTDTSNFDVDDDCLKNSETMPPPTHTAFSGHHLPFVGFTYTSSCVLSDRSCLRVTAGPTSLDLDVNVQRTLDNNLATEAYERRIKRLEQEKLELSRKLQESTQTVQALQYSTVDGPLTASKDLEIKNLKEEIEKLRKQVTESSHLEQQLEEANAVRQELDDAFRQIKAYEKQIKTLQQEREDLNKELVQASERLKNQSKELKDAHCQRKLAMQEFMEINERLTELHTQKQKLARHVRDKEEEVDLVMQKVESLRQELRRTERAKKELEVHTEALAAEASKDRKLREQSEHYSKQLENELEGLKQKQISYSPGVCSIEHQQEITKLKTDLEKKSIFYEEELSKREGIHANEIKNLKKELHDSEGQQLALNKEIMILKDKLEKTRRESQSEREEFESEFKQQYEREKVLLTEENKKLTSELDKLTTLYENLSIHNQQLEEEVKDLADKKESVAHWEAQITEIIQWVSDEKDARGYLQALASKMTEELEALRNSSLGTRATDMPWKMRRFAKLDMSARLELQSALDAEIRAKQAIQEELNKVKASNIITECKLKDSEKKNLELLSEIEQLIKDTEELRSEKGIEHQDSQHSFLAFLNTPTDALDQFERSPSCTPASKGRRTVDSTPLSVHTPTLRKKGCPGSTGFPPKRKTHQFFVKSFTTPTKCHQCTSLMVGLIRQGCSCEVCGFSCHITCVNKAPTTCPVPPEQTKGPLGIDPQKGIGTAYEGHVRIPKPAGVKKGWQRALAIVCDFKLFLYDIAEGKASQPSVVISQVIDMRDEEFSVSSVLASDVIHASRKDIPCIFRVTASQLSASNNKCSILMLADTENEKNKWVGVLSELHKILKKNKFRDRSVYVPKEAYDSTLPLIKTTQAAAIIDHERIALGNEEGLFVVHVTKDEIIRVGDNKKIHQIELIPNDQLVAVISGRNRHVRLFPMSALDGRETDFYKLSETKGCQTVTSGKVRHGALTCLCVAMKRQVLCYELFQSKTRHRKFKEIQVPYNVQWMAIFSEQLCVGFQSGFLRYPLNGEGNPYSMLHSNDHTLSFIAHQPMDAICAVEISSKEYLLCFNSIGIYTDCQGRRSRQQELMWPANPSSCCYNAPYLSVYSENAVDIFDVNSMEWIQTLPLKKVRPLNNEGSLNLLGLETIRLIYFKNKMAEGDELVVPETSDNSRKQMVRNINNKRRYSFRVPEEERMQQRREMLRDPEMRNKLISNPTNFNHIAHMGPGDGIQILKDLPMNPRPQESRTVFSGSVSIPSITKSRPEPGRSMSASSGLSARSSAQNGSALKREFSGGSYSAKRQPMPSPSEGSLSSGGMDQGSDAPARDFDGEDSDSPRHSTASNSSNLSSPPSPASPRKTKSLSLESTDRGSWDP

Structure (SMILES)	remaining activity at 10 µM (382 unique human kinases [1]) [%]	remaining activity at 10 µM (382 unique human kinases [2]) [%]	remaining activity at 10 µM (382 unique human kinases [3]) [%]	remaining activity at 10 µM (382 unique human kinases [4]) [%]	remaining activity at 10 µM (382 unique human kinases [5]) [%]	remaining activity at 10 µM (382 unique human kinases [6]) [%]	% Enzyme Activity (relative to DMSO controls) (382 unique human kinases [7]) [%]	remaining activity at 10 µM (382 unique human kinases [7]) [%]	% Enzyme Activity (relative to DMSO controls) (382 unique human kinases [8]) [%]	remaining activity at 10 µM (382 unique human kinases [8]) [%]	% Enzyme Activity (relative to DMSO controls) (382 unique human kinases [9]; compound 10 uM) [%]	remaining activity at 10 µM (382 unique human kinases [9]; [10]) [%]	% Enzyme Activity (relative to DMSO controls) (382 unique human kinases [1]) [%]	% Enzyme Activity (relative to DMSO controls) (382 unique human kinases [2]) [%]	% Enzyme Activity (relative to DMSO controls) (382 unique human kinases [3]) [%]	% Enzyme Activity (relative to DMSO controls) (382 unique human kinases [4]) [%]	% Enzyme Activity (relative to DMSO controls) (382 unique human kinases [5]) [%]	% Enzyme Activity (relative to DMSO controls) (382 unique human kinases [6]) [%]	remaining activity at 1 µM (382 unique human kinases [9]; compound 1 uM, read-out: % Enzyme Activity (relative to DMSO controls)) [%]
CC(C)c1cc(-c2n[nH]c(=O)n2-c2ccc3c(ccn3C)c2)c(O)cc1O [Ganetespib (STA9090)]	87.6	84.7	75	79.1	64.4	89.6	–	–	–	–	–	–	–	–	–	–	–	–	–
CCNC(=O)c1noc(-c2cc(C(C)C)c(O)cc2O)c1-c1ccc(CN2CCOCC2)cc1 [Luminespib]	–	–	–	–	–	–	88.26	89.3	103.58	104	100.90	103	–	–	–	–	–	–	–
CCNC(=O)c1noc(-c2cc(C(C)C)c(O)cc2O)c1-c1ccc(CN2CCOCC2)cc1 [Luminespib (AUY-922)]	99.7	122	102	99.6	88.8	95.1	–	–	–	–	–	–	98.43	120.31	100.41	99.03	88.32	90.33	–
CC(C)c1cc(-c2n[nH]c(=O)n2-c2ccc3c(ccn3C)c2)c(O)cc1O [Ganetespib]	–	–	–	–	–	–	–	20.2	–	99	–	11.5	–	–	–	–	–	–	88.2
